Consider 8 molecules from patent US20030162206A1, “Ceramide kinase and DNA encoding it” (SANKYO COMPANY, LIMITED, priority 2000, published 2003).

Experiment [1] addresses T1, protein of the present invention having ceramide kinase activity (hCERK1) (Homo sapiens, UniProt Q8TCT0).
T1 construct: expressed in transfected cells; host or cells: HEK293 (ATCC CRL-1573), transient transfection with pCR3.1-CERK1; sonicated cell lysate
T1 sequence (Q8TCT0 1-537): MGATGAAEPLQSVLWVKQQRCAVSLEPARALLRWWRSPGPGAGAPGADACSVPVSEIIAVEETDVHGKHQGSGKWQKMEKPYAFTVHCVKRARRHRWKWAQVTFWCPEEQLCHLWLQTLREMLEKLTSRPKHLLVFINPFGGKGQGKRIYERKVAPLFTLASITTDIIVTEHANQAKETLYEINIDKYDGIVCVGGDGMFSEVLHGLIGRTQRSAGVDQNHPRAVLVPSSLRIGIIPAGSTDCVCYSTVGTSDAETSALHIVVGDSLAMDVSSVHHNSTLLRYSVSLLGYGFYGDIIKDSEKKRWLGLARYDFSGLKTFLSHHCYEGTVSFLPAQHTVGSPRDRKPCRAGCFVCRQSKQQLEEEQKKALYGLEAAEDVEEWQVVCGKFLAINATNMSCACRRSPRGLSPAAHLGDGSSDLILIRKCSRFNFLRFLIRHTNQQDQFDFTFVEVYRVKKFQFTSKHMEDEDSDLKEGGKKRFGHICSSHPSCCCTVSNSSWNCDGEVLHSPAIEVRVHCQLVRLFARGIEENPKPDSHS
The experiment in a line: Measurement of ceramide kinase activity, lysate of HEK293 cells transfected with pCR3.1-CERK1, [32P]-γ-ATP, TLC. Type of experiment: biochemical. The following applies: for Effect on ceramide kinase activity (activated / inhibited): C6-ceramide as substrate, examination of optimum assay conditions; for Phosphorylation by the protein of the present invention (in words): optimum assay conditions for ceramide kinase; for Ratio of activities (pCR3.1-CERK1/pCR3.1) / Phosphorylation activity, Transformed with pCR3.1-CERK 1: substance used as substrate; for Phosphorylation activity, Transformed with pCR3.1-CERK 1: HEK293 cell lysate, [32P]-γ-ATP, 37° C. 20 minutes, pH 7.0, natural ceramide micellized with octyl glucoside. The method, then: Specifically, the solution containing the protein, HEPES buffer solution (pH 7.0) containing magnesium chloride, EDTA, dithiothreitol, sodium vanadate, and protease inhibitor (for example, Complete (trademark), manufactured by Boehringer Manheim), C6 ceramide dissolved in a substrate (bovine serum albumin (hereinafter referred to as “BSA”)) solution having a concentration of 4 mg/ml or ceramide micellized by using octyl glucoside (a preparation purified from bovine fetal brain, manufactured by Sigma), and radio-labeled ^32P-ATP are mixed and incubated at 37° C. to perform a ceramide kinase reaction. Then, the reaction is stopped by adding 1N hydrochloric acid thereto and chloroform:methanol:concentrated hydrochloric acid (100:200: 1 v/v) is added thereto and extracted. The resultant lower layer (chloroform phase) is developed on thin layer chromatography (hereinafter referred to as “TLC”), and analyzed. The ceramide kinase activity can be determined by quantifying the spot in said TLC corresponded to ceramide-1-phosphate (hereinafter referred to as “Cer-1-P”) which is a product.
(§1) That is, after putting 6×10^5 HEK293 cells per well into a polylysine-coated 6-well plate for tissue culture (manufactured by Iwaki Glass) and incubating at 37° C. for 24 hours, they were transfected with one μg of pCR3.1-CERK 1 by using a transfection reagent (Lipofectamin plus, manufactured by Life technology) according to the directions attached thereto. After the operation for the transfection was finished, cells were cultured at 37° C. for one day and the conditioned medium was removed. Then, the cells were collected by using buffer solution A (10% glycerol, 1 mM dithiothreitol, 1 mM EDTA, 1 mM sodium vanadate, protease inhibitor (Complete™, manufactured by Boeheringer Mannheim), a 200 mM Hepes buffer solution, pH 7.0). By ultrasonication with a probe-type sonicater (Cell Disrupter 200, manufactured by Branson), the collected cells were broken into pieces, and the resulting cell lysate was diluted and then used for measurement of enzyme activity as shown in Example 3.
(§2) Specifically, 10 μl of 1 mM C6-ceramide prepared by using BSA solution (4 mg/ml) and 10 μl of a mixture of 100 mM magnesium chloride and 2 mM of radiolabeled [^32P]-gamma-ATP (manufactured by NEN) were added to 180 μl of buffer B [1 mM dithiothreitol, 1 mM EDTA, 1 mM sodium vanadate, protease inhibitor (Complete™, manufactured by Boeheringer Mannheim), 1 mM calcium chloride, a 200 mM HEPES buffer solution, pH 7.0] which further contains the protein of the present invention prepared in Example 2, and then incubated at 37° C. for 20 minutes to conduct the ceramide kinase reaction. Next, after stopping the reaction by adding 20 μl of 1 N hydrochloric acid, 800 μl (100:200:1, v/v) of chloroform:methanol:concentrated hydrochloric acid, 250 μl of 2.5 M potassium chloride, and 250 μl of chloroform were added thereto and extracted. The resulting extract was subjected to centrifugation at 2000×g, and the obtained lower layer (chloroform phase) was developed and analyzed on TLC.
That is, a necessary amount of ceramide dissolved in chloroform was dried to be solid under a nitrogen air current, and the buffer solution B which contains 0.2% of octyl glucoside was added thereto, and then subjected to ultrasonication, and finally 100 μM ceramide solution was provided. 90 μl of the mixture of buffer solution B containing the enzyme solution and 10 μl of the mixture consisting of 100 mM magnesium chloride and 2 mM radio-labeled [^32P]-γ-ATP were added to 100 μl of said substrate solution, and then incubated at 37° C. for 20 minutes to perform the ceramide kinase reaction. Extraction of Cer-1-P was conducted by a similar procedure to the above-mentioned.

For experiment [2], the system named is enzyme activity which HEK293 cell has endogenously. The experiment in a line: Phosphorylation activity of lysate of HEK293 cells transfected with only pCR3.1 vector (negative-reaction control). Type of experiment: biochemical, human. The note with it: substance used as substrate; lysate of HEK293 cells expressing only pCR3.1 vector. The method, then: as §1, with “In order to examine whether the protein of the present invention has ceramide kinase activity, the human embryo kidney cell HEK293 (ATCC CRL-1573) was transfected with the expression vector pCR3.1-CERK1 obtained above. That is,” for “That is,”, “Example 3. […]” for “Example 3.”
as §2, with “Next, after stopping the reaction by adding 20 μl of 1 N hydrochloric acid, 800 μl (100:200:1, v/v) of chloroform:methanol:concentrated hydrochloric acid, 250 μl of 2.5 M potassium chloride, and 250 μl of chloroform were added thereto and extracted.” left out, “TLC. […]” for “TLC.”

For the molecule `[Ca+2].[Cl-].[Cl-]` [calcium chloride], the “Effect on ceramide kinase activity (activated / inhibited)” value (shortened to “Effect … (activated / inhibited)”) in experiment [1] is listed as “activated”.
On to `[Cl-].[Cl-].[Mg+2]` [magnesium chloride], for which the “Effect … (activated / inhibited)” value in experiment [1] is given as “activated”.
Take `CCCCCCCCCCCCC/C=C/[C@@H](O)[C@@H](N)CO` [D-erythro-sphingosine]: the “Phosphorylation activity, Transformed with pCR3.1” value in experiment [2] came to 50 pmol/min/mg. Also, in experiment [1], the “Phosphorylation by the protein of the present invention (in words)” value (“Phosphorylation by the protein” below) was “hardly phosphorylated”; the “Ratio of activities (pCR3.1-CERK1/pCR3.1)” value came to 1; the “Phosphorylation activity, Transformed with pCR3.1-CERK 1” value came out at 50 pmol/min/mg.
diacylglycerol [DG]: in experiment [2], the “Phosphorylation activity, Transformed with pCR3.1” value was 130 pmol/min/mg. For the same molecule, in experiment [1], the “Phosphorylation by the protein” value is reported as “hardly phosphorylated”; the “Ratio of activities (pCR3.1-CERK1/pCR3.1)” value stood at 1; the “Phosphorylation activity, Transformed with pCR3.1-CERK 1” value is 150 pmol/min/mg.
Consider `C[C@H](CCC(=O)O)[C@H]1CC[C@H]2[C@@H]3[C@H](O)C[C@@H]4C[C@H](O)CC[C@]4(C)[C@H]3C[C@H](O)[C@]12C` [cholic acid], for which, in experiment [1], the “Effect … (activated / inhibited)” value is “inhibited”.
Take `CCCCCCCCCCCCC/C=C/[C@@H](O)[C@H](CO)NC(=O)CCCCC` [C6-ceramide, N-hexanoyl form of D-erythro-sphingosine]: the “Phosphorylation activity, Transformed with pCR3.1” value in experiment [2] was determined as 7 pmol/min/mg. In addition, in experiment [1], the “Phosphorylation by the protein” value is “high efficiency”; the “Ratio of activities (pCR3.1-CERK1/pCR3.1)” value is 183; the “Phosphorylation activity, Transformed with pCR3.1-CERK 1” value is listed as 1280 pmol/min/mg. For the same molecule, the Km (usually the substrate concentration at which the rate is half of its maximum) in experiment [1] (substrate C6-ceramide) turned out to be 7 µM.
As for phosphatidylserine, the “Effect … (activated / inhibited)” value in experiment [1] is recorded as “inhibited”.
Take Triton X-100: the “Effect … (activated / inhibited)” value in experiment [1] is given as “inhibited”.
